Values of other authors as cited in patent publication US5948931A (priority 1997, dated 1999).

Settings: pH 10, 27° C.; known to those skilled in the art; cited from earlier work

## O=C(CP(=O)(O)O)Oc1ccc([N+](=O)[O-])cc1 [p-nitrophenyl phosphonoacetate]
  hydrolysis vs. p-nitrophenyl acetate (times slower): 250 ×
